Experimental data reported in patent publication US20180319865A1, “Identification of Novel Small Molecule Beta2 Integrin Agonists” (Rush University Medical Center, priority 2016, published 2018).

Molecular target: T1, mutant integrin CD11bE320A/CD18 (Homo sapiens, UniProt P11215, E336A)
T1 construct: expressed in transfected cells; host or cells: K562 (ATCC)
Assay: HTS cell adhesion assay, K562 E320A cells on immobilized fibrinogen
Assay type: cell-based
Conditions: Table 3, adhesion to fibrinogen, five point dose-response
Description: K562 cells stably expressing CD11c/CD18 (K562 CD11c/CD18) were generated similarly. […] K562 cells stably transfected with mutant integrin CD11bE320A/CD18 (K562 E320A) were generated according to literature protocols. All cell lines were maintained in Iscove's Modified Dulbecco's Medium (IMDM) supplemented with 10% heat-inactivated fetal bovine serum, 50 IU/mL penicillin and streptomycin and 0.5 mg/mL G418.
Cell adhesion assays with immobilized ligands were performed using the general protocol previously described and as illustrated in FIG. 1 [33]. Assays with all different K562 cell lines (K562, K562 CD11b/CD18, K562 CD11c/CD18 and K562 E320A) were performed in an identical fashion. Briefly, 384-well microplates (Corning 3700) were coated with 15 μg/mL fibrinogen (Fg) ligand in PBS^++ overnight at 4° C. At the same time, anti-CD18 (IB4) mAb was also coated. Subsequently, the coated wells were washed with 1% nonfat milk in TBS at room temperature for 1 hour. Next, the wells were washed 3 times with TBS, and the coated microplates were used in the HTS assays.
K562 CD11b/CD18, K562 CD11bE320A/CD18 and K562 CD11c/CD18 cells were washed with TBS, and cells were transferred to the Fg-coated wells of microplates in the assay buffer (Ca^2+ and Mg^2+ for physiological condition, Mn^2+ as the Positive control). A 1 μL aliquot of the compounds were transferred to each washed well with multichannel pipet from the 384-well plates.
The assay plates were incubated at 37° C. in the presence of small-molecule compounds for 30 min. To dislodge the non-adherent cell, the assay plates were gently inverted and kept in inverted position for 20 min at room temperature.
The cells were fixed with 37% formaldehyde in a small volume and the plates were kept inverted for 1 h. Upon the fixation, the solutions in the well were discarded. Next, the cells were fluorescently labeled with DAPI (0.5 μM final in TBS with 0.1% Triton X-100) and the quantitated with “Opera High Content Screening System” (Perkin Elmer).
Cell-adhesion under positive and negative control conditions was used to define the activity scale; signal corresponding to the number of non-small molecule treated cells adherent in activating buffer condition (in the presence of Mn^2+ ions as agonist, PC) was considered maximum (100% binding) and the signal corresponding to the number of non-small molecule treated cells adherent in basal buffer condition (in the presence of 1 mM each of Ca^2+ and Mg^2+, NC) was considered minimum (0% binding).

T1 sequence (P11215 17-1152 E336A): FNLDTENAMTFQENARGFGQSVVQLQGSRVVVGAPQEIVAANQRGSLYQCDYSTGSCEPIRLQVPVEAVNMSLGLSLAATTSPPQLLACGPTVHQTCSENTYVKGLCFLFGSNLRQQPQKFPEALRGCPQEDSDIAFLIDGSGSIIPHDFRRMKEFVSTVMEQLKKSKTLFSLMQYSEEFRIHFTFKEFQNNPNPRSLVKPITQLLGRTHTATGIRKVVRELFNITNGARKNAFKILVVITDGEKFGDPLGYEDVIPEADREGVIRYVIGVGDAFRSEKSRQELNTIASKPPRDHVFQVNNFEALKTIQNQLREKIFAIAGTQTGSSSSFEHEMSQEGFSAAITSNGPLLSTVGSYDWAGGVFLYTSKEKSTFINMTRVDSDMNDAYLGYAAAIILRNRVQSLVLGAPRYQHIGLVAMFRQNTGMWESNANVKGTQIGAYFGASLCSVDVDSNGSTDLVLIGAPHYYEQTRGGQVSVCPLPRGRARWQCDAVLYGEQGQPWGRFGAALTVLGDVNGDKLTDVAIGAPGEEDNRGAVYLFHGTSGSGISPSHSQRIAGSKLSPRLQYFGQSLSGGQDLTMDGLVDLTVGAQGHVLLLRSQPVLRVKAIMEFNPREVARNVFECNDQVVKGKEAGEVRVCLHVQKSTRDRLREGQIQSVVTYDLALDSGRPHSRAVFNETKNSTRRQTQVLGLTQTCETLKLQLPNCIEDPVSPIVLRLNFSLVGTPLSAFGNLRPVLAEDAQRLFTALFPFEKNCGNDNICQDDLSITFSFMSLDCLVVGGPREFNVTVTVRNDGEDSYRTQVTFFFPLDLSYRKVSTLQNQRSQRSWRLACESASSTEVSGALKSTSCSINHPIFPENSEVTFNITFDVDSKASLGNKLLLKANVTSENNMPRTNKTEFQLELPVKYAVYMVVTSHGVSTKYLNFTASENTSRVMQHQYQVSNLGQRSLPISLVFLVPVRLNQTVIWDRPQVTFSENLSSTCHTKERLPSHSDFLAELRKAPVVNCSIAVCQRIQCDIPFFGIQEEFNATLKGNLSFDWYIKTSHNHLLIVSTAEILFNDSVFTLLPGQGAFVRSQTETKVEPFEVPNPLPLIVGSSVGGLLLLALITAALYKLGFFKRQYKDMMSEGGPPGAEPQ
T1 sequence (P05107 23-769 partner): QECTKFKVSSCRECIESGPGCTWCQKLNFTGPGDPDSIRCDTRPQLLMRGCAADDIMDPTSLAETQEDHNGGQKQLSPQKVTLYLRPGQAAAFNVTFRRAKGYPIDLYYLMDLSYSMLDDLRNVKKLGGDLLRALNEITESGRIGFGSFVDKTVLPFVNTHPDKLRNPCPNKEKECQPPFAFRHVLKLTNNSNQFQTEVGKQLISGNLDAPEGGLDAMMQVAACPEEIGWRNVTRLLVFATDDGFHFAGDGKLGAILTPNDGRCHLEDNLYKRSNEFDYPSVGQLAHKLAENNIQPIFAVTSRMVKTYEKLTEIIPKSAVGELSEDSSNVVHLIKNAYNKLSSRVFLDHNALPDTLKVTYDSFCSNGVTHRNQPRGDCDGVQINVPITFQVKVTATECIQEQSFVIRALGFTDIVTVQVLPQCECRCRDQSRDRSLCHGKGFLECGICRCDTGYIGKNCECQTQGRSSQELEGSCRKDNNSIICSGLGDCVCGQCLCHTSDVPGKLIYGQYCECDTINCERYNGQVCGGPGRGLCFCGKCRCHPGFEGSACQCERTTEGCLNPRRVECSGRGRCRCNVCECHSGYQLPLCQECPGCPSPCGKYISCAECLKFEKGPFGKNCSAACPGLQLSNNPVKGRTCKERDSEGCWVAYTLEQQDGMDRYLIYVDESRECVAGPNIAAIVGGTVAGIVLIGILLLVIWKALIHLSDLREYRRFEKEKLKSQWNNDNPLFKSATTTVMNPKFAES

Compound | EC50 [µM] | EC50 E320A
O=C(Nc1nc(-c2ccncc2)cs1)c1ccco1 [Compound 2081288] | 12.7 | 
CC(=O)c1cccc(NC(=O)Nc2cc3sccc3n2C)c1 [Compound 5307308] | 18.7 | 
COc1ccc(N=c2oc3ccc(OC)cc3cc2-c2nc3ccccc3[nH]2)cc1 [Compound 1212121] | 18.8 | 
CCC(=O)Nc1ccc(C(=O)CSc2nnc(-c3ccccc3F)n2C2CC2)cc1 [Compound 2448744] | 21.8 | 
Cc1ccc(/C=C/C(=O)Nc2nnc(SCc3ccc(C#N)cc3)s2)o1 [Compound 2126150] |  | Infinite
CC(=O)c1ccc(N2C(=O)C3C(C2=O)C(C(=O)c2ccc(Cl)cc2)N2CCCC32)cc1 (centres unmarked) [Compound 665589] | 14.5 | 
O=C1NC(=S)N(C2CC2)C(=O)/C1=C/c1ccc2c(c1)CCN2CCCCl [Compound 1993471] | 164 | 
Cc1ccc(C)c(N(CC(=O)N/N=C/c2ccc(-c3ccc([N+](=O)[O-])cc3)o2)S(=O)(=O)c2ccccc2)c1 [Compound 5334671] | 16.9 | 
O=C(CC1Nc2ccccc2NC1=O)Nc1ccccc1 (centres unmarked) [Compound 2829724] | 18.3 | 
COc1ccc(C2=Nc3nc(-c4ccccc4)cn3C(c3ccc(OC)cc3)C2)cc1 (centres unmarked) [Compound 4325421] | 999 | 
Cn1c(SCC(=O)Nc2ccc3c(c2)oc2ccccc23)nnc1-c1ccccc1 [Compound 2193118] | 38.2 | 
NS(=O)(=O)c1ccc(NC(=S)NC(=O)c2ccc(-c3ccccc3)cc2)cc1 [Compound 1011163] | 12.9 | 
O=C(Nc1ccc2nn(-c3ccccc3)nc2c1)c1ccc2c(c1)OCO2 [Compound 2208079] | 568 | 
COc1ccc2nc(O)c(CN(C3CCCCC3)C(c3nnnn3Cc3ccco3)C(C)C)cc2c1 (centres unmarked) [Compound 650199] | 13.3 | 
Cc1cc(=O)oc2cc(OCC(=O)N/N=C/c3ccccc3[N+](=O)[O-])ccc12 [Compound 9619223] | 35.7 | 
Cc1ccc(NC(=O)COc2ccc(/C=C3/SC(=Nc4ccccc4)N(Cc4cccnc4)C3=O)cc2)cc1 [Compound 11840403] | 13.4 | 

Compound | EC50 [µM] | EC50 E320A
N#Cc1cccc(NC(=O)CSc2ccc3c4c(cccc24)C(=O)c2ccccc2-3)c1 [Compound 4835204] |  | Infinite
COc1ccc(N(CC(=O)N/N=C/c2ccc(-c3ccc([N+](=O)[O-])cc3)o2)S(=O)(=O)c2ccc(C)cc2)cc1 [Compound 5334631] | 13 | 
Cc1cc(C)c(NC(=O)Cn2c(=O)n(Cc3ccco3)c(=O)c3ccccc32)c(C)c1 [Compound 3237376] | 12.2 | 
CCOC(=O)c1sc(NC(=O)CSc2nnnn2-c2ccccc2)c(C(=O)OCC)c1C [Compound 2132989] | 18 | 
CCC(C)N1C(=O)/C(=C/c2ccc3c(c2)CCN3CCCCl)C(=O)NC1=S (centres unmarked) [Compound 6513263] | 13.9 | 
COC(=O)/C(=C1/Oc2cc3c(cc2S1)OCO3)C(F)(F)F [Compound 3237460] | 135 | 
Cc1ccc(-c2cc(C(=O)Nc3ccc(S(=O)(=O)Nc4nccs4)cc3)c3ccccc3n2)c(C)c1 [Compound 1358622] | 13.7 | 
COc1ccc(NC(=O)CCC(=O)OCC(=O)c2ccc(Oc3ccc([N+](=O)[O-])cc3)cc2)cc1 [Compound 2912337] | 12.4 | 
CCCC(=O)Nc1ccc(-c2cnc(-c3ccc(NC(=O)CCC)cc3)nc2)cc1 [Compound 1272696] |  | Infinite
CN(C)c1ccc(NC(=O)Cn2ncn3c(cc4ccccc43)c2=O)cc1 [Compound 3244843] | 46.2 | 
O=C(Nc1nc2c(s1)CCCC2)c1cc(-c2ccncc2)nc2ccccc12 [Compound 2462581] | 12.6 | 
C=CCn1c(SCC(=O)Nc2sccc2C#N)nc2sc(C)c(C)c2c1=O [Compound 1564171] | 14.8 | 
CCOC(=O)C1CCN(S(=O)(=O)c2ccc(-c3nc4ccccc4s3)s2)CC1 [Compound 3241379] | 12.6 | 
Cc1cc(/C=C2\C(=O)NC(=O)N(c3ccc(Cl)cc3)C2=O)c(C)n1-c1sc2c(c1C#N)CCCC2 [Compound 1418314] | 9.57 | 
CCOC(=O)c1[nH]c2ccc(Cl)cc2c1NC(=O)/C=C/c1ccc2c(c1)OCO2 [Compound 1973614] | 43.6 | 
O=C(CNC(=O)c1cc2c(s1)CCC2)Nc1ccccc1Br [Compound 2537029] | 8760 | 

Continued, values first:

EC50 [µM] | EC50 E320A | Compound
9.7 |  | CCS(=O)(=O)N1CCC(C(=O)NCCCN2CCCCCC2)CC1 [Compound 3244583]
8.85 |  | O=C1c2cccc(OCC(=O)N3N=C(c4cccs4)CC3c3ccc(F)cc3)c2CCN1Cc1cccnc1 (centres unmarked) [Compound 4168394]
8.02 |  | CC(C)CN(C(=O)COC(=O)c1cc2c(s1)CCC2)C1CCS(=O)(=O)C1 (centres unmarked) [Compound 2998734]
10.2 |  | COc1ccc(/C=C2/C(=O)N(c3nc4ccccc4s3)N=C2CSc2ccc(Cl)cc2)cc1 [Compound 5727347]
10.5 |  | COc1cc(NC(=O)c2noc3c2CCC3)c(OC)cc1Cl [Compound 3238190]
10.7 |  | CC(=O)c1ccc(NC(=O)CSc2ccc(-c3ccc4c(c3)OCO4)nn2)cc1 [Compound 7206282]
9.02 |  | O=C(Cc1coc2cc3c(cc12)CCC3)OCc1cc(=O)n2c(n1)sc1ccccc12 [Compound 3000165]
9.05 |  | COc1ccccc1CNC(=O)c1ccc2nc3[nH]c4ccccc4c3nc2c1 [Compound 6079611]
8.01 |  | Cc1ccnc(N/C=C(\C#N)c2nc(-c3cccc(Br)c3)cs2)c1 [Compound 1352154]
10.3 |  | CCC(=O)Nc1ccc(C(=O)CSc2nc3ccc(C)cc3[nH]2)cc1 [Compound 2549650]
9.97 |  | CN(C)c1ccc(NC(=O)CN2C(=O)CC(c3ccccc3)=Nc3ccccc32)cc1 [Compound 656131]
9.94 |  | CCN(CC)C(=O)c1sc(NC(=O)c2cc(-c3ccc(C)s3)nc3ccccc23)c(C(=O)OC)c1C [Compound 1219756]
8.94 |  | CCn1c(COc2ccc3c(c2)CCCC3)nnc1SCC(=O)Nc1ccc(C(=O)OC)cc1 [Compound 2958500]
11.4 |  | O=C(NNC(=O)c1cccc(S(=O)(=O)N2CCN(c3ccccc3)CC2)c1)c1ccc(Cl)cc1 [Compound 4412067]
10.4 |  | CSCCOC(=O)c1[nH]c2c(c1C)C(=O)CC(c1ccco1)C2 (centres unmarked) [Compound 3162305]
9.83 |  | O=C(COC(=O)c1c2c(nc3ccccc13)/C(=C/c1cccc([N+](=O)[O-])c1)CCC2)NC1CCS(=O)(=O)C1 (centres unmarked) [Compound 5950432]
8.13 |  | O=C(Cc1cccs1)Nc1nnc(SCc2cccc3ccccc23)s1 [Compound 7191378]

EC50 [µM] | EC50 E320A | Compound
9.08 |  | COc1ccc(C(=O)Nc2ccc(N3CCN(c4ccc(OC)cc4)CC3)c(C#N)c2)cc1 [Compound 3241486]
8.18 |  | CCC1CCCCN1S(=O)(=O)c1ccc(S(=O)(=O)N2CCN(S(=O)(=O)CC)CC2)cc1 (centres unmarked) [Compound 651007]
11.1 |  | N#Cc1ccc(CSc2nnc(NC(=O)C3CC(=O)N(c4ccc5c(c4)OCCO5)C3)s2)cc1 (centres unmarked) [Compound 4831224]
8.47 |  | O=C(Nc1ccc(Br)cc1Cl)c1cnccn1 [Compound 1245695]
9.23 |  | CSc1nc(NCCOCCO)c2sc3nc(-c4ccco4)c4c(c3c2n1)CCC4 [Compound 665043]
10.1 |  | Cc1ccccc1-c1ccc(Nc2ccc(N3CCOCC3)cc2)nn1 [Compound 646977]
8.22 |  | Cc1ccc(-n2c(=O)c(C#N)cc3c(=O)n4cccc(C)c4nc32)cc1 [Compound 9550569]
9.85 |  | COc1ccc(C(=O)CSc2nnc(NC(=O)C3CC(=O)N(c4ccccc4)C3)s2)cc1 (centres unmarked) [Compound 12006105]
8.51 |  | CCOc1cc(/C=C2/N=C(c3ccc(C(C)(C)C)cc3)OC2=O)cc(Cl)c1OS(C)(=O)=O [Compound 2182821]
10.8 |  | COc1ccccc1-c1cc(C(=O)Nc2sc3c(c2C#N)CCC(C)C3)c2ccccc2n1 (centres unmarked) [Compound 3272728]
12.1 |  | CCOc1ccc(-c2nnc3ccc(SCC(=O)Nc4nc5ccc(C)cc5s4)nn23)cc1 [Compound 12005911]
10.5 |  | COc1ccc(/C=N/NC(=O)C2c3ccccc3-c3ccccc32)cc1 [Compound 9557044]
12.1 |  | Cc1oc(-c2ccc(F)cc2)cc1-c1nn2c(-c3ccoc3C)nnc2s1 [Compound 2145571]
7.53 |  | O=C(/C=C/c1ccc(Cl)cc1)NC(=S)Nc1ccc(N2CCOCC2)c(Cl)c1 [Compound 1345254]
6.69 |  | Cc1ccc(-c2noc(C3CCCN(S(=O)(=O)c4ccc(S(=O)(=O)N(C)C)cc4)C3)n2)o1 (centres unmarked) [Compound 3226283]
5.17 |  | Cc1ccc2sc(-c3ccc(NC(=O)CCN4C(=O)c5ccccc5C4=O)cc3)nc2c1 [Compound 1193278]
